The record followed here is ChEMBL document CHEMBL3045675, “Synthesis and structure-activity relationships of some pesticides with an alpha-amino acid function” (Biochim Biophys Acta, 1997).

The source made the active and inactive calls. No cut-off for these calls is given here.

Data set [1] relates to Vicia faba. The experiment in a line: Herbicidal activity against Vicia faba assessed as 1 mM of L-[3H]lysine uptake in leaf at 1 mM after 1 hr by liquid scintillation counting analysis relative to untreated control. The class given is functional, organism-based.
Data set [2] deals with Vicia faba. In words: Herbicidal activity against Vicia faba assessed as inhibition of 1 mM of [U-14C]theronine uptake in veins after 1 hr by autoradiographic analysis relative to untreated control. The format is functional, organism-based.
Data set [3] relates to Vicia faba. The experiment in a line: Herbicidal activity against Vicia faba assessed as inhibition of 1 mM of [U-14C]theronine uptake in mesophyll after 1 hr by autoradiographic analysis relative to untreated control. The format is functional, organism-based.
Data set [4] has as its system Vicia faba. The experiment in a line: Herbicidal activity against Vicia faba assessed as inhibition of 1 mM of [3H]sucrose uptake in leaf at 1 mM after 1 hr by liquid scintillation counting analysis relative to untreated control. The class given is functional, organism-based.
A short description of data set [5]: Solubility in hydrochloric acid. The class given is physicochemical.
Data set [6] in a line: Solubility in organic solvents. The class given is physicochemical.
Data set [7] can be described thus: Solubility in water. Conditions: buffer. The class given is physicochemical.
For data set [8], the system named is Vicia faba. The experiment in a line: Herbicidal activity against Vicia faba assessed as inhibition of 1 mM of L-[3H]theronine uptake in leaf at 1 mM after 1 hr by liquid scintillation counting analysis relative to untreated control. The format is functional.
The nature of data set [9]: Octanol-water partition coefficient, log KOW of the compound. The conditions noted are these: read-out: log KOW. The class given is physicochemical.
Data set [10] concerns Vicia faba. In words: Herbicidal activity against Vicia faba assessed as inhibition of threonine uptake. The conditions noted are these: read-out: Ki(app). The class given is functional, organism-based.
Data set [11] relates to Vicia faba. The experiment in a line: Herbicidal activity against Vicia faba assessed as change in 12 mM KCl-induced depolarization of transmembrane potential difference in mesophyll cells at 2.5 mM after 1 hr by electrophysiological assay. The format is functional, organism-based.
For data set [12], the system named is Vicia faba. The experiment in a line: Herbicidal activity against Vicia faba assessed as change in 10 mM sucrose-induced depolarization of transmembrane potential difference in mesophyll cells at 2.5 mM after 1 hr by electrophysiological assay relative to control. The format is functional, organism-based.
Data set [13] concerns Vicia faba. The experiment in a line: Herbicidal activity against Vicia faba assessed as reduction in 10 mM threonine-induced depolarization of transmembrane potential difference in mesophyll cells at 2.5 mM after 1 hr by electrophysiological assay relative to control. The class given is functional, organism-based.
Data set [14] relates to Vicia faba. In words: Herbicidal activity against Vicia faba assessed as decrease in 1 mM of L-[3H]lysine uptake in leaf at pH 3.5 at 2.5 mM after 1 hr by liquid scintillation counting analysis. The class given is functional, organism-based.
The test system of data set [15] is Vicia faba. In words: Herbicidal activity against Vicia faba assessed as inhibition of 1 mM of L-[3H]lysine uptake in leaf at pH 4 at 2.5 mM after 1 hr by liquid scintillation counting analysis. The class given is functional.
For data set [16], the system named is Vicia faba. In words: Herbicidal activity against Vicia faba assessed as inhibition of 1 mM of L-[3H]threonine uptake in leaf at pH 4 at 2.5 mM after 1 hr by liquid scintillation counting analysis. The class given is functional.
Data set [17] concerns Vicia faba. In words: Herbicidal activity against Vicia faba assessed as inhibition of 1 mM of L-[3H]glutamate uptake in leaf at pH 4 at 2.5 mM after 1 hr by liquid scintillation counting analysis. The class given is functional.
Data set [18] concerns Vicia faba. The experiment in a line: Herbicidal activity against Vicia faba assessed as decrease in 1 mM of L-[3H]lysine uptake in leaf at pH 8 at 2.5 mM after 1 hr by liquid scintillation counting analysis. The format is functional, organism-based.
For data set [19], the system named is Vicia faba. In words: Herbicidal activity against Vicia faba assessed as decrease in 1 mM of L-[3H]glutamate uptake in leaf at pH 8 at 2.5 mM after 1 hr by liquid scintillation counting analysis. The class given is functional, organism-based.
The test system of data set [20] is Vicia faba. In words: Herbicidal activity against Vicia faba assessed as 1 mM of L-[3H]glutamate uptake in leaf at 1 mM after 1 hr by liquid scintillation counting analysis relative to untreated control. The format is functional.
Data set [21] concerns Vicia faba. In words: Herbicidal activity against Vicia faba assessed as 1 mM of L-[3H]theronine uptake in leaf at 20 uM after 1 hr by liquid scintillation counting analysis relative to untreated control. The class given is functional.
The subject of data set [22] is Vicia faba. The experiment in a line: Herbicidal activity against Vicia faba assessed as 1 mM of L-[3H]theronine uptake in leaf at 10 uM after 1 hr by liquid scintillation counting analysis relative to untreated control. The format is functional.
In data set [23] the test system is Vicia faba. The experiment in a line: Herbicidal activity against Vicia faba assessed as 1 mM of L-[3H]theronine uptake in leaf at 5 uM after 1 hr by liquid scintillation counting analysis relative to untreated control. The class given is functional.
Data set [24] has as its system Vicia faba. The experiment in a line: Herbicidal activity against Vicia faba assessed as 1 mM of L-[3H]theronine uptake in leaf at 10 mM after 1 hr by liquid scintillation counting analysis relative to untreated control. The class given is functional.
Data set [25] has as its system Vicia faba. In words: Herbicidal activity against Vicia faba assessed as 1 mM of L-[3H]theronine uptake in leaf at 5 mM after 1 hr by liquid scintillation counting analysis relative to untreated control. The format is functional.
For data set [26], the system named is Vicia faba. The experiment in a line: Herbicidal activity against Vicia faba assessed as 1 mM of L-[3H]theronine uptake in leaf at 1 mM after 1 hr by liquid scintillation counting analysis relative to untreated control. The format is functional.
Data set [27] has as its system Vicia faba. In words: Herbicidal activity against Vicia faba assessed as change in 12 mM KCl-induced depolarization of transmembrane potential difference in mesophyll cells at 1 mM after 1 hr by electrophysiological assay. The class given is functional, organism-based.
Data set [28] concerns Vicia faba. In words: Herbicidal activity against Vicia faba assessed as change in 10 mM sucrose-induced depolarization of transmembrane potential difference in mesophyll cells at 1 mM after 1 hr by electrophysiological assay (reference value: 9.2 +/- 7.1 mV). The class given is functional.
The test system of data set [29] is Vicia faba. In words: Herbicidal activity against Vicia faba assessed as reduction in 10 mM threonine-induced depolarization of transmembrane potential difference in mesophyll cells at 1 mM after 1 hr by electrophysiological assay (reference value: 27.9 +/- 12.7 mV). The format is functional.
For data set [30], the system named is Vicia faba. The experiment in a line: Herbicidal activity against Vicia faba assessed as change in transmembrane potential difference in mesophyll cells at 1 mM after 1 hr by electrophysiological assay (reference value: - 154 +/- 13.2 mV). The format is functional.
Data set [31] deals with Vicia faba. The experiment in a line: Herbicidal activity against Vicia faba assessed as inhibition of 1 mM of [U-14C]theronine loading in phloem after 1 hr by autoradiographic analysis relative to untreated control. The format is functional, organism-based.

`N[C@@H](CCCCNC(=O)COc1ccccc1)C(=O)O` [L-LYSINE-PHENOXYACETIC ACID]: the inhibition entry in the data set with Vicia faba [1], in the data set with Vicia faba [2] and with Vicia faba [3] was “Active” each time. Besides, in the data set with Vicia faba [4], the inhibition entry was “inactive”.

`Nc1ccc(OCC(=O)NCCCC[C@H](N)C(=O)O)cc1`: the solubility entry in data set [5] is recorded as “soluble”; in data set [6], “Insoluble”; in [7] it was “soluble”. Besides, the inhibition result in the data set on Vicia faba [2] and in the data set on Vicia faba [3] was “Active” each time. In addition, the inhibition entry with Vicia faba [4] and in the data set on Vicia faba [8] was “inactive” throughout. Further, in data set [9], the logP was -3.

Take `N[C@@H](CCCCNC(=O)COc1ccc(Cl)cc1Cl)C(=O)O`: the Ki in the data set on Vicia faba [10] is 500 µM. The outcome with Vicia faba [11], with Vicia faba [12], in the data set on Vicia faba [13] and with Vicia faba [14] was inactive. Besides, the figures for the “inhibition (INH)” value in the data set with Vicia faba [15], in the data set on Vicia faba [16] and with Vicia faba [17] were 81%, 79% and 51%, respectively. The result in the data set on Vicia faba [18] and with Vicia faba [19] was Active. In addition, the figures for the solubility entry in data set [5], in [6] and in data set [7] were “soluble”, “Insoluble” and “soluble”, respectively. The inhibition entry with Vicia faba [1], in the data set on Vicia faba [20] and in the data set with Vicia faba [8] was “Active” each time. Besides, the Activity in the data set on Vicia faba [21] is reported as 80.7%; with Vicia faba [22], 91%; with Vicia faba [23], 91.8%. Also, the inhibition result in the data set with Vicia faba [4] is “inactive”. In addition, the logP in data set [9] was -0.49.

For `N[C@@H](CCCCNC(=O)COc1ccc([N+](=O)[O-])cc1)C(=O)O` [L-LYSINE-4-NITROPHENOXYACETICACID], the inhibition result with Vicia faba [4] was “inactive”.

As for `CC(C)[C@H](N)C(=O)O` [VALINE], the Activity is recorded as 63.7% in the data set on Vicia faba [24], 77.4% with Vicia faba [25] and 99.2% with Vicia faba [26].

Regarding `N[C@@H](CCCCNC(=O)CCCOc1ccc(Cl)cc1Cl)C(=O)O`, in the data set on Vicia faba [27], the result was inactive. Moreover, the Activity in the data set with Vicia faba [28] is recorded as 10.1 mV; in the data set with Vicia faba [29], 10.2 mV; in the data set with Vicia faba [30] it was -161.9 mV. Besides, the figures for the solubility result in [5], in data set [6] and in [7] were “soluble”, “Insoluble” and “soluble”, respectively. Also, the inhibition entry in the data set on Vicia faba [1], in the data set on Vicia faba [20], with Vicia faba [31] and in the data set on Vicia faba [8] was “Active” in each case. The inhibition entry in the data set on Vicia faba [4] is “inactive”. Moreover, the logP in data set [9] is -0.49.

On to `Cc1cc(Cl)ccc1OCC(=O)NCCCC[C@H](N)C(=O)O` [L-LYSINE-2-METHYL-4-CHLOROROPHENOXYACETIC ACID], for which the figures for the solubility entry in [5], in data set [6] and in data set [7] were “soluble”, “Insoluble” and “soluble”, respectively. In addition, in the data set on Vicia faba [4], the inhibition result was “inactive”. The inhibition result with Vicia faba [8] is “Active”. In addition, in [9], the logP is -0.59.

On to `N[C@H](CCCCNC(=O)COc1ccc(Cl)cc1Cl)C(=O)O` [D-LYSINE-2,4-DICHLOROPHENO-XYACETIC ACID], for which the inhibition entry in the data set on Vicia faba [2] and in the data set on Vicia faba [3] was “inactive” in each case. Also, the Activity in the data set with Vicia faba [26] is on record as 74.2%.

`NCCCC[C@H](N)C(=O)O` [LYSINE]: the results for the Activity in the data set with Vicia faba [24], with Vicia faba [25] and with Vicia faba [26] were 104%, 99.6% and 97%, respectively.

For `N[C@@H](CCCCNC(=O)COc1ccc(Cl)cc1)C(=O)O` [L-LYSINE-4-CHLOROPHENOXYACETIC ACID], in the data set on Vicia faba [4], the inhibition entry is “inactive”.

On to `N[C@@H](CCC(=O)O)C(=O)O` [GLUTAMIC ACID], for which the Activity in the data set on Vicia faba [24] is 67.2%; in the data set on Vicia faba [25], 76.2%; in the data set on Vicia faba [26] it was 96.7%.
